# Assay results as given in patent publication US20210395256A1, “TYROSINE KINASE INHIBITORS, COMPOSITIONS AND METHODS THERE OF” (Betta Pharmaceuticals Co., Ltd., priority 2018, published 2021).
# How the values were obtained:
# Assay type in all cases: in vitro ADME
# [1] = Plasma protein binding (equilibrium dialysis), rat; conditions: pH 7.4, 6 hours dialysis; for fraction unbound at 6 h, 1 μM: read-out: Mean % Bound Rat (converted)
# Description: Example 204 Plasma Protein Binding Measurements
# The plasma protein binding was measured as the following procedure.
# 1) Preparation of 100 mM sodium phosphate and 150 mM NaCl buffer (PBS)
# A basic solution was prepared by dissolving 14.2 g/L Na2HPO4 and 8.77 g/L NaCl in deionized water and the solution could be stored at 4° C. for up to 7 days. An acidic solution was prepared by dissolving 12.0 g/L NaH2PO4 and 8.77 g/L NaCl in deionized water and the solution could be stored at 4° C. for up to 7 days. The basic solution was titrated with the acidic solution to pH 7.4 and store at 4° C. for up to 7 days. pH was checked on the day of experiment and was adjusted if outside specification of 7.4±0.1.
# Frozen plasma was thawed immediately at room temperature.
# The plasma was centrifuged at 3,220 g for 10 minutes to remove clots and supernatant was collected into a fresh tube. The pH of the plasma was checked and recorded.
# Note: a). Only use plasma that has been thawed no more than twice since arrival. b). Only use plasma within the range of pH 7 to pH 8.
# 3) Preparation of working solutions
# The working solutions of test compounds and control compound ketoconazole were prepared in DMSO at the concentration of 200 μM. And then 3 μL of working solution was removed to mix with 597 μL of human, rat or mouse plasma to achieve a final concentration of 1 μM (0.5% DMSO). Plasma samples were vortexed thoroughly.
# 4) Preparation of dialysis membranes
# The dialysis membranes were soaked in ultrapure water for 60 minutes to separate strips, then in 20% ethanol for 20 minutes, finally in dialysis buffer for 20 minutes.
# 5) Procedure for equilibrium dialysis
# The dialysis apparatus was assembled according to the manufacturer's instruction. Each cell was filled with 120 μL of plasma sample and dialyzed against equal volume of dialysis buffer (PBS). The assay was performed in duplicate. The dialysis plate was sealed and incubated in an incubator at 37° C. with 5% CO2 at 100 rpm for 6 hours. At the end of incubation, seal was removed and 50 μL of samples from both buffer and plasma chambers were transferred to wells of a 96-well plate.
# 6) Procedure for sample analysis
# 50 μL of blank plasma was added to each buffer samples and an equal volume of PBS was supplemented to the collected plasma sample. 300 μL of room temperature quench solution (acetonitrile containing internal standards (1S, 100 nM Alprazolam, 500 nM Labetalol and 2 μM Ketoprofen)) was added to precipitate protein. Samples in plate were vortexed for 5 minutes and centrifuged at 3,220 g for 30 minutes at 4° C. And then 100 μL of the supernatant was transferred to a new 96-well plate with 100 μL or 200 μL water (depends on the LC-MS signal response and peak shape) for LC-MS/MS analysis.
# Calculate the percentages of test compound and control compound bound as follows:
# % Free=(Peak Area Ratiobuffer chamber/Peak Area Ratioplasma chamber)*100
# % Recovery=(Peak Area Ratiobuffer chamber+Peak Area Ratioplasma chamber)/Peak Area Ratio total sample*100
# Peak Area Ratiobuffer chamber means the conc for free fraction
# Peak Area Ratioplasma chamber means the conc for both free and bound fraction
# Peak Area Ratiototal sample means the conc for starting sample before incubation
# [2] = Liver microsomes metabolic stability assay, mouse; conditions: male, mouse liver microsomes 0.5 mg/mL, 37° C.; for half-life at 2 μM: read-out: t1/2 Mouse
# Method in brief: (§1)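 Pooled human, male rat or male mouse liver microsomes (0.5 mg/mL final) incubated at 37° C with 2 μM compound, with or without 1 mM NADPH. Samples at 0-60 min quenched in cold acetonitrile and analyzed by LC-MS/MS in duplicate. t1/2 derived from ln(% remaining) vs time slope, converted to CLint (μL/min/mg).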
# [3] = Liver microsomes metabolic stability assay, human; conditions: human liver microsomes 0.5 mg/mL, 37° C.; for half-life at 2 μM: read-out: t1/2 Human
# Method in brief: as §1
"fraction unbound at 6 h, 1 μM [1]",microsomal CLint at 2 μM [2],half-life at 2 μM [2],microsomal CLint at 2 μM [3],half-life at 2 μM [3],"recovery at 6 h, 1 μM [1]",Compound
0.1,96.4 µL/min/mg,14.4 min,20.4 µL/min/mg,67.9 min,,"C[C@H](O)c1nnc(-c2cnn3ccc(N4CCC[C@@H]4c4cc(F)ccc4F)nc23)[nH]1 [Compound 4, (S)-1-(5-(5-((R)-2-(2,5-difluorophenyl)pyrrolidin-1-yl)pyrazolo[1,5-a]pyrimidin-3-yl)-4H-1,2,4-triazol-3-yl)ethan-1-ol]"
0.116,41.4 µL/min/mg,33.5 min,17.2 µL/min/mg,80.6 min,89.7%,"C[C@@H](CO)c1nnc(-c2cnn3ccc(N4CCC[C@@H]4c4cc(F)ccc4F)nc23)[nH]1 [Compound 39, (R)-2-(5-(5-((R)-2-(2,5-difluorophenyl)pyrrolidin-1-yl)pyrazolo[1,5-a]pyrimidin-3-yl)-4H-1,2,4-triazol-3-yl)propan-1-ol]"
0.131,37 µL/min/mg,37.4 min,16.4 µL/min/mg,84.6 min,98.9%,"OC1CC(c2nnc(-c3cnn4ccc(N5CCC[C@@H]5c5cc(F)ccc5F)nc34)[nH]2)C1 (stereo partly drawn) [Compound 31, (R)-3-(5-(5-(2-(2,5-difluorophenyl)pyrrolidin-1-yl)pyrazolo[1,5-a]pyrimidin-3-yl)-4H-1,2,4-triazol-3-yl)cyclobutan-1-ol]"
0.174,35.6 µL/min/mg,38.9 min,16.8 µL/min/mg,82.7 min,92.5%,"CC(C)(O)Cc1nnc(-c2cnn3ccc(N4CCC[C@@H]4c4cc(F)ccc4F)nc23)[nH]1 [Compound 30, (R)-1-(5-(5-(2-(2,5-difluorophenyl)pyrrolidin-1-yl)pyrazolo[1,5-a]pyrimidin-3-yl)-4H-1,2,4-triazol-3-yl)-2-methylpropan-2-ol]"
0.0699,48.6 µL/min/mg,28.5 min,9.36 µL/min/mg,148 min,,"OC1(c2nnc(-c3cnn4ccc(N5CCC[C@@H]5c5cc(F)ccc5F)nc34)[nH]2)CCC1 [Compound 23, (R)-1-(5-(5-(2-(2,5-difluorophenyl)pyrrolidin-1-yl)pyrazolo[1,5-a]pyrimidin-3-yl)-4H-1,2,4-triazol-3-yl)cyclobutan-1-ol]"
0.0729,214 µL/min/mg,6.47 min,108 µL/min/mg,12.8 min,93.8%,"Cc1nnc(-c2cnn3ccc(N4CCCC4c4cc(F)ccc4F)nc23)[nH]1 (stereo not shown) [Comparative compound A, 5-[2-(2,5-Difluorophenyl)pyrrolidin-1-yl]-3-(5-methyl-1H-1,2,4-triazol-3-yl)pyrazolo[1,5-a]pyrimidine, reference compound]"
0.289,61.9 µL/min/mg,,4.27 µL/min/mg,,87.5%,"C[C@H](N)c1nnc(-c2cnn3ccc(N4CCC[C@@H]4c4cc(F)ccc4F)nc23)[nH]1 [Compound 11, (S)-1-(5-(5-((R)-2-(2,5-difluorophenyl)pyrrolidin-1-yl)pyrazolo[1,5-a]pyrimidin-3-yl)-4H-1,2,4-triazol-3-yl)ethan-1-amine]"
,19.4 µL/min/mg,71.5 min,11.1 µL/min/mg,124 min,90.8%,"CC(C)(O)c1nnc(-c2cnn3ccc(N4CCC[C@@H]4c4cc(F)ccc4F)nc23)[nH]1 [Compound 7, (R)-2-(5-(5-(2-(2,5-difluorophenyl)pyrrolidin-1-yl)pyrazolo[1,5-a]pyrimidin-3-yl)-4H-1,2,4-triazol-3-yl)propan-2-ol]"
